This is an account of results in patent publication US20240293405A1, “(1H-PYRROLO[2,3-B]PYRIDIN-1-YL)PYRIMIDIN-2-YL-AMINO-PHENYL-ACRYLAMIDE INHIBITORS OF EGFR FOR USE IN THE TREATMENT OF BRAIN TUMORS” (Dana-Farber Cancer Institute, Inc., priority 2021, published 2024).

In general, IC50 refers to the concentration that inhibits the measured activity by half. Lower therefore signals higher potency.

One data set deals with BT112 cells. Nature of the data set: Cell viability, patient-derived GBM line BT112. Conditions: Homo sapiens, 72 h.
The next data set deals with BT179 cells. Briefly: Cell viability, patient-derived GBM line BT179. Conditions: Homo sapiens, 72 h.
For a further data set, the system named is BT333 cells. Nature of the data set: Cell viability, patient-derived GBM line BT333. Conditions: Homo sapiens, 72 h.
A short description of data set [1]: Brain and plasma exposure after single oral dose. Conditions: gefitinib 50 mg/kg PO. In kind it is in vivo, Sprague Dawley rats. The text has this: Genfitinib concentrations were quantitated by LC-MS/MS from brain and plasma from Group 1 animals.
Data set [2] is described as follows: Brain and plasma exposure after single oral dose. Conditions: Sprague Dawley, rat, 50 mg/kg, gefitinib 50 mg/kg PO, 7 hr; for concentration at 7 h: oral. It is filed as in vivo, Sprague Dawley rats.
For a further data set, the system named is Glioblastoma. Particulars: previously published report, cited from earlier work.
The subject of another data set is P-gp, Bcrp. Conditions: previously published report; cited from earlier work.
A short description of data set [3]: Brain and plasma exposure after 5 hour intravenous infusion. In kind it is in vivo, Sprague Dawley rats. Particulars: 3 mg/kg IV infusion over 5 h. As to the method: A single IV infustion for 5 hours was administered to each animal, which were then twice observed clinically (30 minutes to 1 hour post-posing and at the end of the study (TTerminal). Blood samples were collected at 5 time points from each animal over the 5 hour infusion period (5 minutes, 1 hour, 2, hours, 3 hours and TTerminal) and processed to plasma. Brains were collected at Tterminal (blotted, weighed, and snap frozen) and brain exposure was compared. […]

Several values for one entry are separate records, joined by “and”; a condition that tells them apart may be missing. Equal values may be shown once. Read-outs that look alike come from different tables or passages of the source.

Protocol for BT112 cells: (§1) Primary human glioblastoma lines BT112, BT179 and BT333 were maintained in NeuroCult proliferation medium (human) (StemCell Technologies) with 20 ng/ml EGF, 10 ng/ml FGF and 0.0002% Heparin.
(§2) Cells were seeded in 96-well plates at a density of 1,000 cells per well and treated with two-fold serial dilutions of compounds with a starting concentration of 20 μM. Cell viability was assessed after three days of treatment by CellTiter-Glo (Promega). Curve fitting analysis and IC50 value determination were performed using GraphPad Prism 8.
Protocol for BT179 cells: as §1, §2
Protocol for BT333 cells: as §1, §2

Regarding `CS(=O)(=O)CCNCc1ccc(-c2ccc3ncnc(Nc4ccc(OCc5cccc(F)c5)c(Cl)c4)c3c2)o1` [Lapatinib], the 50% inhibitory concentration (IC50) with BT112 cells is 5.22 µM; in the data set on BT179 cells it was 2.32 µM; in the data set with BT333 cells, 7.91 µM.

For the compound `COc1cc2ncnc(Nc3ccc(F)c(Cl)c3)c2cc1OCCCN1CCOCC1` [Gefitinib, reference compound], the concentration at 3 h in data set [1] (Sprague Dawley, rat, plasma, oral, 50 mg/kg, 3 hr, mean n=3) was determined as 1950 ng/mL. The “Plasma Concentration” value in data set [1] (3 hr, individual animal) is 2660 ng/mL and 1940 ng/mL and 1260 ng/mL; in data set [1] (7 hr, individual animal), 2240 ng/mL and 4700 ng/mL and 1030 ng/mL. Further, the “Brain Tissue Concentration” value in data set [1] (7 hr, individual animal) is 666 ng/g and 562 ng/g and 561 ng/g; in data set [3] (5 h, individual animal, Compound 2 as metabolite in Compound 1-dosed rats) it was 153 ng/g and 129 ng/g and 151 ng/g and 149 ng/g and 189 ng/g and 155 ng/g. Besides, the concentration at 7 h in data set [2] (brain, individual animal, read-out: Brain Tissue Concentration) came to 561 ng/g; in data set [2] (brain, mean n=3, read-out: Brain Tissue Concentration), 596 ng/g; in data set [2] (plasma, mean n=3, read-out: Plasma Concentration), 2660 ng/mL. Also, the Kp at 7 h in data set [2] (brain, po, mean n=3, read-out: Brain/Plasma (ratios)) is 0.22. Further, the “Glioblastoma (treatment outcome)” value in the data set on Glioblastoma is given as “Failed”; in the data set with Glioblastoma (listed as gefitinib), “failed”. For the same compound, the “Efflux Liability” value in the data set on P-gp, Bcrp is on record as “P-gp, Bcrp”. Besides, the concentration at 5 h in data set [3] (male, Sprague Dawley, rat, brain, intravenous, 3 mg/kg, 5 h, individual animal, Compound 2 as metabolite in Compound 1-dosed rats, read-out: Brain Tissue Concentration) amounted to 155 ng/g; in data set [3] (male, Sprague Dawley, rat, brain, intravenous, 3 mg/kg, 5 h, mean n=6, Compound 2 as metabolite, read-out: Brain Tissue Concentration), 154 ng/g; in data set [3] (male, Sprague Dawley, rat, plasma, intravenous, 3 mg/kg, 5 h, individual animal, Compound 2 as metabolite in Compound 1-dosed rats, read-out: Plasma Concentration) it was 286 ng/mL. Further, the concentration at 0.083 h in data set [3] (male, Sprague Dawley, rat, plasma, intravenous, 3 mg/kg, 0.083 h, individual animal, Compound 2 as metabolite in Compound 1-dosed rats) was found to be 55.6 ng/mL. Further, the concentration at 1 h in data set [3] (male, Sprague Dawley, rat, plasma, intravenous, 3 mg/kg, 1 h, individual animal, Compound 2 as metabolite in Compound 1-dosed rats) was determined as 115 ng/mL. For the same compound, the concentration at 2 h in data set [3] (male, Sprague Dawley, rat, plasma, intravenous, 3 mg/kg, 2 h, individual animal, Compound 2 as metabolite in Compound 1-dosed rats) worked out at 161 ng/mL.

In the case of `COc1cc2ncnc(Nc3ccc(F)c(Cl)c3)c2cc1NC(=O)/C=C/CN1CCCCC1` [Vizimpro], the results for the “Glioblastoma (treatment outcome)” value in the data set on Glioblastoma and in the data set on Glioblastoma (listed as visimpro) were “Failed” and “failed”, respectively.

As for `CN(C)C/C=C/C(=O)Nc1cc2c(Nc3ccc(F)c(Cl)c3)ncnc2cc1O[C@H]1CCOC1` [Afatinib], the “Efflux Liability” value with P-gp, Bcrp is listed as “P-gp, Bcrp”.

`C#Cc1cccc(Nc2ncnc3cc(OCCOC)c(OCCOC)cc23)c1` [Erlotinib]: the half-inhibitory concentration (IC50) in the data set with BT112 cells came out at 18.5 µM; in the data set with BT179 cells, 11.7 µM; in the data set on BT333 cells, 52.3 µM. Further, the “Glioblastoma (treatment outcome)” value in the data set with Glioblastoma was “Failed”; with Glioblastoma (listed as erlotinib), “failed”. Moreover, in the data set on P-gp, Bcrp, the “Efflux Liability” value was “P-gp, Bcrp”.
